Results: PMC7481407, “Inhibition of Pendrin by a small molecule reduces Lipopolysaccharide-induced acute Lung Injury” (Theranostics, 2020)

Target: T1, pendrin (Homo sapiens, UniProt O43511)
T1 construct: gene SLC26A4; human wild-type pendrin expressed in human alveolar epithelial cells (hAEC)
T1 sequence (O43511 1-780): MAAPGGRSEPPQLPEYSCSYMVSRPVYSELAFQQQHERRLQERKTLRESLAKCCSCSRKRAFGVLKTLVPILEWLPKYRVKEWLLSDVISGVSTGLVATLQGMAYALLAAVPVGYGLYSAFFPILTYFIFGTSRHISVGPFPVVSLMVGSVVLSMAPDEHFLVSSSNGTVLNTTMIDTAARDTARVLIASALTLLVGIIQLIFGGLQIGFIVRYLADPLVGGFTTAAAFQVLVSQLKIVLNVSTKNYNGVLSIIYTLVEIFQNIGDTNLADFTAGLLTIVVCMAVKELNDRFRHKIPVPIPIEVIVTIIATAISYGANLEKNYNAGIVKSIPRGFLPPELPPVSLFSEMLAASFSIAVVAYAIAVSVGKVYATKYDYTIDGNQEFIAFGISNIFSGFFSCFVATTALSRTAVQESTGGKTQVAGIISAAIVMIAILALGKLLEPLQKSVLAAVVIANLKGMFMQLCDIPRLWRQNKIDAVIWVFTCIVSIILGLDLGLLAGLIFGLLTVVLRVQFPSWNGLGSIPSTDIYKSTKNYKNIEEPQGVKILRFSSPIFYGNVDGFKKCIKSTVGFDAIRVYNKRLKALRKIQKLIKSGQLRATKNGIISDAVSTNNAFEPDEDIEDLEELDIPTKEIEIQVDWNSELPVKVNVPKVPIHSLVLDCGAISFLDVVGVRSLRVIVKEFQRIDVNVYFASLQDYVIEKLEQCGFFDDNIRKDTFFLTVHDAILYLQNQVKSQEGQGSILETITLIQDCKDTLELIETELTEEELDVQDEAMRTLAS
Assay: Cl-/SCN- exchange activity assay in pendrin-transfected human alveolar epithelial cells, dose-response
Format: cell-based

With `CC(C)(C)c1ccc(C2=N/C(=C/c3cccs3)C(=O)O2)cc1` [YS-01] the IC50 was 4.7 ± 0.82 µM.
